Experimental data as given in the NIST ThermoML archive (doi:10.1021/je8002282).

Assays:
[1] = xn = mol fraction of the nth substance listed; details: Liquid
[2] = Liquid

[C-]#[O+] [carbon monoxide] + COC(=O)OC
[1], Pycnometric method
Details	mass density [kg/m3]
293 K, x1 = 0.0547	1078
293 K, x1 = 0.0679	1036.5
293 K, x1 = 0.0838	992.5
293 K, x1 = 0.1138	963.5
293 K, x1 = 0.1413	919.7
293 K, x1 = 0.1606	865.9
313 K, x1 = 0.0534	966.4
313 K, x1 = 0.0646	948
313 K, x1 = 0.0868	910.2
313 K, x1 = 0.1087	885.7
313 K, x1 = 0.1199	834.8
313 K, x1 = 0.1511	786.6
353 K, x1 = 0.0485	868.7
353 K, x1 = 0.0677	853
353 K, x1 = 0.0752	847.4
353 K, x1 = 0.0873	802.4
353 K, x1 = 0.0936	773.3
353 K, x1 = 0.1204	720.7
373 K, x1 = 0.0418	841.2
373 K, x1 = 0.0545	829.8
373 K, x1 = 0.0723	801.3
373 K, x1 = 0.084	786.7
373 K, x1 = 0.0943	754.3
373 K, x1 = 0.1095	710.1

COC(=O)OC [dimethyl carbonate]
[2]
Details	vapor or sublimation pressure [kPa]
293 K	10
313 K	20
353 K	70
373 K	140

COC [dimethyl ether]
[2]
Details	vapor or sublimation pressure [kPa]
293 K	520
313 K	900
353 K	2240
373 K	3260

O=O [oxygen] + COC(=O)OC
[1], determining using the ratio of the masses to the volume of the sample.
Details	mass density [kg/m3]
293.15 K, x1 = 0.0612	1087.6
293.15 K, x1 = 0.0791	1062.4
293.15 K, x1 = 0.097	1032
293.15 K, x1 = 0.1266	984.7
293.15 K, x1 = 0.1605	931.3
293.15 K, x1 = 0.1977	838
313 K, x1 = 0.0506	1056.6
313 K, x1 = 0.061	1014.8
313 K, x1 = 0.0748	960.2
313 K, x1 = 0.099	885.7
313 K, x1 = 0.1307	824.8
313 K, x1 = 0.175	766.6
353 K, x1 = 0.0412	988.5
353 K, x1 = 0.0523	947.8
353 K, x1 = 0.0614	882.2
353 K, x1 = 0.0733	826.7
353 K, x1 = 0.082	728.8
353 K, x1 = 0.1018	685.3
373 K, x1 = 0.0233	935.5
373 K, x1 = 0.0347	900.2
373 K, x1 = 0.0539	841.3
373 K, x1 = 0.071	798.9
373 K, x1 = 0.0858	712.5
373 K, x1 = 0.0953	652.5
